We go through one molecule from patent US11672762B2, “Onapristone extended-release compositions and methods” (Context Biopharma Inc., priority 2014, dated 2023).

The conditions of data set [1]: human, in vivo. From the text: PK results for onapristone are available for 52 patients from the a first study (ARN-AR18-CT-101) (Table 1). Variability for onapristone PK is moderate and greater for the IR versus the ER formulation. Onapristone Cmax and AUC values for the ER form are proportional to administered dose (FIGS. 1 and 2). Based on observed mean AUC values, oral bioavailability for the ER versus the IR formulation is approximately 50% (FIG. 24). A later Tmax value for the ER form results in somewhat lower dose-corrected Cmax values for the ER form compared to the IR form. Steady state is attained before day 8 with a mean t % of 7.5 hrs.
Table 1 compares descriptive statistics for the primary onapristone pharmacokinetic exposure parameters following single oral doses from 10 to 50 mg of extended-release onapristone compared to that from 100 mg immediate-release onapristone (Study ARN-AR18-CT-101). […]
Blood samples were collected at 0, 1, 2, 3, 4, 6, 8, 12 (before next BID dose), and 24 (before next dose—for 100 mg IR only) hours post-ONA, as well as hour 0 on days 8, 29 and 57 (just before drug intake). Plasma concentrations of ONA, mono-demethylated onapristone (M1) and other metabolites in plasma and urine were analyzed with a validated ultra-performance liquid chromatography with tandem mass spectrometry detection (UPLC-MS/MS) assay. […]

The conditions of data set [2]: original immediate release (IR) formulation; cited from earlier work.
Data set [3] deals with gonadotrophin (LH and FSH) secretion. The note with it: immediate release doses of 1 and 10 mg; cited from earlier work.

In data set [1], `CN(C)c1ccc([C@H]2C[C@]3(C)[C@@H](CC[C@]3(O)CCCO)[C@@H]3CCC4=CC(=O)CCC4=C32)cc1` [onapristone, (8S,11R,13R,14S,17S)-11-[4-(dimethylamino)phenyl]-17-hydroxy-17-(3-hydroxypropyl)-13-methyl-1,2,6,7,8,11,12,14,15,16-decahydrocyclopenta[a]phenanthren-3-one] gave a Steady state attained of less than 8 days and a mean t % of 7.5 h. For the same molecule, in data set [2], the tolerability entry is reported as “well-tolerated with the exception of abnormalities in liver function tests”. Further, the “effect on gonadotrophin (LH, FSH) secretion” value in data set [3] is “dose-dependent effect of onapristone on suppression of gonadotrophin”.
